Source: BigSolDB 2.1

CC(=O)c1c(C)c([N+](=O)[O-])c(C(C)(C)C)c([N+](=O)[O-])c1C
solubility (mole fraction)
Details	278.15 K	283.15 K	288.15 K	293.15 K	298.15 K	303.15 K	308.15 K	313.15 K	318.15 K
in DMAc	0.113	0.129	0.147	0.165	0.185	0.206	0.228	0.252	0.278
in DMF	0.0732	0.0856	0.0993	0.115	0.131	0.149	0.169	0.191	0.215
in THF	0.148	0.165	0.183	0.202	0.221	0.243	0.266	0.288	0.313
in acetonitrile	0.0141	0.0174	0.0213	0.0259	0.0314	0.0379	0.0455	0.0545	0.0644
in cyclohexane	0.00275	0.00348	0.00439	0.00547	0.0068	0.00853	0.0104	0.0127	0.0153
in ethanol	0.00201	0.00251	0.00304	0.00364	0.00435	0.00521	0.00622	0.00743	0.00869
in ethyl acetate	0.065	0.0744	0.0846	0.0959	0.108	0.121	0.136	0.151	0.168
in isopropanol	0.00159	0.002	0.00259	0.00332	0.00414	0.00521	0.00651	0.008	0.00982
in methanol	0.00127	0.00155	0.00188	0.00227	0.00272	0.00324	0.00385	0.00455	0.00533
in n-butanol	0.00299	0.0037	0.00455	0.00557	0.00679	0.00823	0.00993	0.0119	0.0141
in n-heptane	0.00184	0.00228	0.00281	0.00344	0.00419	0.00508	0.00613	0.00737	0.00878
in n-hexane	0.00164	0.00202	0.00248	0.00302	0.00365	0.0044	0.00527	0.00629	0.00744
